Results on 15 compounds are retold here after ChEMBL document CHEMBL1221290, “Novel imidazobenzazepine derivatives as dual H1/5-HT2A antagonists for the treatment of sleep disorders” (Bioorg Med Chem Lett, 2010).

The structures appear in SMILES notation.

In data set [1] the target is 5-hydroxytryptamine receptor 2A (Homo sapiens, UniProt P28223). Description: Antagonist activity at human 5HT2A receptor expressed in HEK cells assessed as intracellular calcium luminescence by aequorin assay. The data set is classed as functional, cell-based, HEK293.
Sequence of 5-hydroxytryptamine receptor 2A (P28223 whole entry): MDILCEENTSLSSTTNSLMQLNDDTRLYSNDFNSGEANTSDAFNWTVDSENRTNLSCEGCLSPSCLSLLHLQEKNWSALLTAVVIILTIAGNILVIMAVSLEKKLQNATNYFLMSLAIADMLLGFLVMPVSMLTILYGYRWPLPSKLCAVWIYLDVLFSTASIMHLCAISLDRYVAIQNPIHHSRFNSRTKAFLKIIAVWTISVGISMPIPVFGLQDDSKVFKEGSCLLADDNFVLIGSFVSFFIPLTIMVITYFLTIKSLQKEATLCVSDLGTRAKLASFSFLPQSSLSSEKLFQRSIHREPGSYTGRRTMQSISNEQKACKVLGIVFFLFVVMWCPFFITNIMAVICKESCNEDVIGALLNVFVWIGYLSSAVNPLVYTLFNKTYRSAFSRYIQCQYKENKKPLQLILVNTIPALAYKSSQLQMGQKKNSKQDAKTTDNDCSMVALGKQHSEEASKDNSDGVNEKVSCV
The target in data set [2] is T1, 5-hydroxytryptamine receptor 2C (Homo sapiens, UniProt P28335).
T1 sequence (P28335 whole entry): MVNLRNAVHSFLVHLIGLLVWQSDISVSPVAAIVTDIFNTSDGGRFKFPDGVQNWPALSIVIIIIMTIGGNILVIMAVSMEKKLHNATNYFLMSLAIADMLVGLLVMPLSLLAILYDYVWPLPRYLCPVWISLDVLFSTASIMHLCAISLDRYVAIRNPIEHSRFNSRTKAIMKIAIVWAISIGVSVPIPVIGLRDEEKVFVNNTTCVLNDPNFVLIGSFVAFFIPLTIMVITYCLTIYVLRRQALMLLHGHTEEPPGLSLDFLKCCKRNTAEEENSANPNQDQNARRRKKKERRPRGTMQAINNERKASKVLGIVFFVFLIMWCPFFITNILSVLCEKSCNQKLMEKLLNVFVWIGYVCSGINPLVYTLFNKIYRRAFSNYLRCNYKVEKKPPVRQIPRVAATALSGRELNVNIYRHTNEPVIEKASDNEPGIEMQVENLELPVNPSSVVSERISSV
Description: Antagonist activity at human 5HT2C receptor expressed in human SHSY5Y cells by FLPR assay. It counts as functional, cell-based, SH-SY5Y. As to conditions: for pKi: sh-sy5y.

A short description of data set [3]: Half life in rat at 0.5 mg/kg, iv and 1 mg/kg, po. It counts as ADME, organism-based. As to conditions: in vivo.
Data set [4] can be described thus: Blood clearance in rat at 0.5 mg/kg, iv and 1 mg/kg, po. The data set is classed as ADME, organism-based.
In the next data set the target is Histamine H1 receptor (Homo sapiens, UniProt P35367). Nature of the data set: Antagonist activity at human recombinant histamine H1 receptor expressed in CHO cells by FLPR assay. It counts as functional, cell-based.
Sequence of Histamine H1 receptor (P35367 whole entry): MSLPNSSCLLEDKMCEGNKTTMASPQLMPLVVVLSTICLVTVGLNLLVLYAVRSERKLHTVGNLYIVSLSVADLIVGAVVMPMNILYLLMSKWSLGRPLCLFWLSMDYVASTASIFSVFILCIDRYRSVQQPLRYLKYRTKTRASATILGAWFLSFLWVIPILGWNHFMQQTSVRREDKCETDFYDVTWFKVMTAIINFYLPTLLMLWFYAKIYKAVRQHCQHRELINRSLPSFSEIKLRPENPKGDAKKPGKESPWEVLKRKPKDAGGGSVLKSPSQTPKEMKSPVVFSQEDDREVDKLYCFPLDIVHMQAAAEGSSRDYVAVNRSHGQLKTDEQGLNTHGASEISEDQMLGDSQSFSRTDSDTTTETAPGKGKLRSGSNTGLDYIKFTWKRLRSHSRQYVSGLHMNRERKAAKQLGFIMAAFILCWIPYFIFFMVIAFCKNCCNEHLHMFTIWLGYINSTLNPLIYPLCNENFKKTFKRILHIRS
The nature of data set [5]: AUC (0 to 8 hrs) ratio of drug level in brain to blood in rat at 1 mg/kg, po. The data set is classed as ADME, organism-based. Also noted: dose 1 mg/kg, route oral. As to conditions: read-out: Ratio AUC.
Data set [6] in a line: Fraction unbound in rat brain. The data set is classed as ADME, tissue-based.
The nature of data set [7]: Fraction unbound in rat blood. It counts as ADME, tissue-based.
Data set [8] is described as follows: Volume of distribution at steady state in rat at 0.5 mg/kg, iv and 1 mg/kg, po. The data set is classed as ADME, organism-based. Conditions: in vivo, read-out: Vdss.
Data set [9] is described as follows: Oral bioavailability in rat at 1 mg/kg. The data set is classed as ADME, organism-based. As to conditions: in vivo.
Data set [10] addresses 5-hydroxytryptamine receptor 2B (Homo sapiens, UniProt P41595). Description: Antagonist activity at human 5HT2B receptor expressed in human SHSY5Y cells by FLPR assay. The data set is classed as functional, cell-based, SH-SY5Y.
A short description of data set [11]: AUC (0 to 8 hrs) ratio of drug level in brain to blood in rat at 3 mg/kg, po. It counts as ADME, organism-based. Conditions: read-out: Ratio AUC. Also noted: dose 3 mg/kg, route oral.
Data set [12] can be described thus: Oral bioavailability in rat at 3 mg/kg. The data set is classed as ADME, organism-based. As to conditions: in vivo.
The nature of data set [13]: Volume of distribution at steady state in rat at 1 mg/kg, iv and 3 mg/kg, po. The data set is classed as ADME, organism-based. Conditions: in vivo, read-out: Vdss.
Data set [14] in a line: Half life in rat at 1 mg/kg, iv and 3 mg/kg, po. Conditions: in vivo. The data set is classed as ADME, organism-based.
Data set [15] is described as follows: Blood clearance in rat at 1 mg/kg, iv and 3 mg/kg, po. It counts as ADME, organism-based.
Data set [16] deals with T2, Alpha-1B adrenergic receptor (Homo sapiens, UniProt P35368).
T2 sequence (P35368 whole entry): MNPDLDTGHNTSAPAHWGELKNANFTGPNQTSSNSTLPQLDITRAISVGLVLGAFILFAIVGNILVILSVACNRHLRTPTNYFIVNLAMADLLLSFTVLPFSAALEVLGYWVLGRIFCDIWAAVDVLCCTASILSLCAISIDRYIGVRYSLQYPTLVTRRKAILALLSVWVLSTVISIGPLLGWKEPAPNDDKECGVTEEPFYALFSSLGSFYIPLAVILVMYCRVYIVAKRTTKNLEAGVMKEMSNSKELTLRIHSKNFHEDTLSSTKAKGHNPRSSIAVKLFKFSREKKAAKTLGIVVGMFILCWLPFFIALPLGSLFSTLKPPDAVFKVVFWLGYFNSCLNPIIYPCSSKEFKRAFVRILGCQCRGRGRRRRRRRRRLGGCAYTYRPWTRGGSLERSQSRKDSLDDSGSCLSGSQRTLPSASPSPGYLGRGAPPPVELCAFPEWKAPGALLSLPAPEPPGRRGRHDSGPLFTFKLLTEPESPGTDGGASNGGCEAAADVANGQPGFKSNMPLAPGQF
Nature of the data set: Antagonist activity at human adrenergic Alpha-1B receptor assessed as intracellular calcium luminescence by cell based aequorin assay. It counts as functional. Background: Calcium flux is commonly read through the fluorescence of an indicator in the cells.

The target in data set [17] is T3, Alpha-1A adrenergic receptor (Homo sapiens, UniProt P35348).
T3 sequence (P35348 whole entry): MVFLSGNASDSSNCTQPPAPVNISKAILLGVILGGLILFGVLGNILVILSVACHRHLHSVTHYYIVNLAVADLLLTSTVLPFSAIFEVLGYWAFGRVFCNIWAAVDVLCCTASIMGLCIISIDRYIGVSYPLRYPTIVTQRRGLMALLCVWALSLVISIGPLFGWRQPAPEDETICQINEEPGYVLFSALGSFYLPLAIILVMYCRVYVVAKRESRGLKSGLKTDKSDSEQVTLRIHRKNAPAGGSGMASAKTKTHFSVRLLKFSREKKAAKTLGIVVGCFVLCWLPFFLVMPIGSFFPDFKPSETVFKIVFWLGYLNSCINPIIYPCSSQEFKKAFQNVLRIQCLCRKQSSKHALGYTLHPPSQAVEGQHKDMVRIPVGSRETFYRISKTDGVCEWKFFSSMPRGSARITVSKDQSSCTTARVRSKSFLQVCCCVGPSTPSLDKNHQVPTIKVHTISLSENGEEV
Nature of the data set: Antagonist activity at human adrenergic alpha1A receptor assessed as intracellular calcium luminescence by cell based aequorin assay. It counts as functional.

Sequence of 5-hydroxytryptamine receptor 2B (P41595 whole entry): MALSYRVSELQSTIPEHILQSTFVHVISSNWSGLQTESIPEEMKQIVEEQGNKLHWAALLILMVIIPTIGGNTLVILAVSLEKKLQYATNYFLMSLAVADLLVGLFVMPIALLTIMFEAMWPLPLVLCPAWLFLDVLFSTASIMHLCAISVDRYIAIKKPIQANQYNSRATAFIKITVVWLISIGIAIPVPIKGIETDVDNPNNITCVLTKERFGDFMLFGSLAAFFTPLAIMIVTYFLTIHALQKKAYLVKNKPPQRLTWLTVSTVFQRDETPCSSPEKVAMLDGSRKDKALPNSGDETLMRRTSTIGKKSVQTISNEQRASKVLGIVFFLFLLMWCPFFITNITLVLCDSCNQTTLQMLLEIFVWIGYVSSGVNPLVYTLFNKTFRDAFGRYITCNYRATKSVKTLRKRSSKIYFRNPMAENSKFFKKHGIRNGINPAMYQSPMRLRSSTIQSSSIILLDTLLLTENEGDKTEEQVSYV

As a reminder, the Ki is a measure of affinity in units of concentration, obtained from inhibition or displacement. Usually half-life stands for the time needed for the level to fall by half in the phase considered. As usually defined, the fraction unbound is the share of the substance not bound to proteins or other matrix. A low value points to extensive binding. By bioavailability is commonly meant the share of a dose that reaches the circulation, judged against a reference dose that is usually intravenous. Low readings indicate little systemic uptake, high ones much systemic uptake. As to `CC(C)(CN1CCN(C2=Cc3ccccc3Cn3cc(F)nc32)CC1)C(=O)O`, the Ki was 100 nM in data set [1], 316 nM in data set [2], 39.8 nM at Histamine H1 receptor and 316 nM in data set [10]. The compound also gave a half-life in data set [3] of 1.8 h. Moreover, in data set [4], the clearance is 10 mL/min/kg. Moreover, the Kp in data set [5] came to 0.04. Also, the fraction unbound in [6] is 0.45; in data set [7], 0.4. Further, the Vd in data set [8] came to 1.1 L/kg. In [9], this compound returned a bioavailability of 45%.
In the case of `CC1CN(C2=Cc3ccccc3Cn3ccnc32)CC(C)N1CCC(=O)O` (stereo not drawn), the Ki in data set [1] is 39.8 nM; in data set [2] it was 158 nM; on Histamine H1 receptor it was 20 nM; in [10] it was 631 nM.
For `O=C(O)CCN1CCN(C2=Cc3ccccc3Cn3ccnc32)CC1`, in that order: 316 nM, greater than 794 nM, 50.1 nM and greater than 794 nM.
On to `COc1cnc2n1Cc1ccccc1C=C2N1CCN(CC(C)(C)C(=O)O)CC1`, for which the Ki was 251 nM in [1], 501 nM in [2], 126 nM on Histamine H1 receptor and 158 nM in data set [10].
For the compound `CC(C)(CN1CCN(C2=Cc3ccccc3Cn3ccnc32)CC1)C(=O)O`, the Ki in [1] is 79.4 nM; in data set [2], 50.1 nM; at Histamine H1 receptor, 25.1 nM; in data set [10] it was 1580 nM. The Kp in data set [11] is 0.02. Besides, the fraction unbound in [6] and in data set [7] was greater than 0.5 each time. The compound also came in with a bioavailability in [12] of 61%. Moreover, the Vd in [13] turned out to be 1.9 L/kg. The compound further showed a half-life in [14] of 0.7 h. In [15], this compound returned a clearance of 38 mL/min/kg.
On to `C1=C(N2CCNCC2)c2nccn2Cc2ccccc21`, for which the Ki in data set [1] was 7.94 nM; in data set [16] it was 3.16 nM; in [2], 20 nM; on Histamine H1 receptor, 0.631 nM; in data set [17], 3.98 nM; in [10], 316 nM.
In the case of `O=C(O)C1CCC(N2CCN(C3=Cc4ccccc4Cn4ccnc43)CC2)CC1` (single isomer, unassigned; isomer 1), the Ki in [1] is 631 nM; in data set [2], greater than 2000 nM; at Histamine H1 receptor, 126 nM; in data set [10] it was 39.8 nM.
The matching figures for `Cc1cn2c(n1)C(N1CCN(CC(C)(C)C(=O)O)CC1)=Cc1ccccc1C2`: 126 nM, 31.6 nM, 50.1 nM and 63.1 nM.
For orientation: pKi means the Ki on a negative log10 scale, so that one unit is a factor of ten. As for `O=C(O)C1CC(N2CCN(C3=Cc4ccccc4Cn4ccnc43)CC2)C1` (single isomer, unassigned; isomer 2), the pKi in data set [1] (hek293), in data set [2] and in data set [10] (sh-sy5y) was less than 6.1 each time. The Ki at Histamine H1 receptor was 25.1 nM.
`O=C(O)C1CC(N2CCN(C3=Cc4ccccc4Cn4ccnc43)CC2)C1` (stereo in doubt; 13): the Ki in data set [1] is greater than 794 nM; in [2], greater than 794 nM; at Histamine H1 receptor, 12.6 nM; in data set [10], greater than 794 nM.
On to `Cc1nc2n(c1C)Cc1ccccc1C=C2N1CCN(CC(C)(C)C(=O)O)CC1`, for which the Ki was 398 nM in data set [1], 63.1 nM in data set [2], 39.8 nM on Histamine H1 receptor and 15.8 nM in data set [10].
As for `C=C(CN1CCN(C2=Cc3ccccc3Cn3ccnc32)CC1)C(=O)O`, the Ki in data set [1] is 200 nM; in [2], 501 nM; at Histamine H1 receptor it was 31.6 nM; in [10], greater than 794 nM.
The matching figures for `CC(C)(CN1CCCN(C2=Cc3ccccc3Cn3ccnc32)CC1)C(=O)O`: greater than 5010 nM, greater than 2000 nM, 50.1 nM and greater than 2000 nM.
In data set [10], `CC(C)(CN1CCN(C2=Cc3ccccc3Cn3cc(Cl)nc32)CC1)C(=O)O` gave a Ki of 100 nM.
Take `O=C(O)C1CCC(N2CCN(C3=Cc4ccccc4Cn4ccnc43)CC2)CC1` (stereo in doubt; 16): the inhibition constant (Ki) in data set [1] is 501 nM; on Histamine H1 receptor, 63.1 nM; in data set [10], 25.1 nM. For the same compound, in [2], the pKi was less than 5.7.
